Source: PubChem BioAssay (NCI)
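Five compound concentrations were applied to cells in 96-well plates for 48 hours; endpoints were derived by simple linear interpolation of the resulting dose-response curve. Abbreviation: GI50, concentration required for 50% inhibition of growth. TGI denotes the concentration required for complete inhibition of growth.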

Key:
Test in all cases: NCI-60 cell line screen, 48 h
ACHN renal = tested on: ACHN renal
HT29 colon = tested on: HT29 colon
NCI-H226 lung = tested on: NCI-H226 lung
SF-268 CNS = tested on: SF-268 CNS
BT-549 breast = tested on: BT-549 breast
KM12 colon = tested on: KM12 colon
EKVX NSCLC = tested on: EKVX NSCLC
SF-539 CNS = tested on: SF-539 CNS
NCI-H23 lung = tested on: NCI-H23 lung
SN12C renal = tested on: SN12C renal
A498 renal = tested on: A498 renal
SR leukemia = tested on: SR leukemia
PC-3 prostate = tested on: PC-3 prostate
SK-MEL-28 melanoma = tested on: SK-MEL-28 melanoma
T-47D breast = tested on: T-47D breast
RPMI-8226 leukemia = tested on: RPMI-8226 leukemia
SF-295 CNS = tested on: SF-295 CNS
SK-MEL-2 melanoma = tested on: SK-MEL-2 melanoma
RXF 393 renal = tested on: RXF 393 renal
OVCAR-5 ovarian = tested on: OVCAR-5 ovarian
DU-145 prostate = tested on: DU-145 prostate
A549 NSCLC = tested on: A549 NSCLC
UACC-257 melanoma = tested on: UACC-257 melanoma
786-0 renal = tested on: 786-0 renal
MOLT-4 leukemia = tested on: MOLT-4 leukemia
HOP-92 NSCLC = tested on: HOP-92 NSCLC
TK-10 renal = tested on: TK-10 renal
CCRF-CEM leukemia = tested on: CCRF-CEM leukemia
OVCAR-4 ovarian = tested on: OVCAR-4 ovarian
SNB-19 CNS = tested on: SNB-19 CNS
UO-31 renal = tested on: UO-31 renal
MDA-MB-231 breast = tested on: MDA-MB-231 breast
IGROV1 ovarian = tested on: IGROV1 ovarian
HS 578T breast = tested on: HS 578T breast
K-562 leukemia = tested on: K-562 leukemia
SW-620 colon = tested on: SW-620 colon
SNB-75 CNS = tested on: SNB-75 CNS
NCI/ADR-RES ovarian = tested on: NCI/ADR-RES ovarian
MALME-3M melanoma = tested on: MALME-3M melanoma
MDA-MB-435 = tested on: MDA-MB-435
UACC-62 melanoma = tested on: UACC-62 melanoma
SK-OV-3 ovarian = tested on: SK-OV-3 ovarian
SK-MEL-5 melanoma = tested on: SK-MEL-5 melanoma
HL-60(TB) leukemia = tested on: HL-60(TB) leukemia
HOP-62 NSCLC = tested on: HOP-62 NSCLC
NCI-H522 lung = tested on: NCI-H522 lung
CAKI-1 renal = tested on: CAKI-1 renal

`CCCCCc1ccc(S(=O)(=O)Nc2cccc(-c3csc(NC(=O)CCCCCN4CCN(C)CC4)n3)c2)cc1` was tested, and the GI50 (ACHN renal) was 1.86 µM, the TGI (ACHN renal) was 3.56 µM and the GI50 (HT29 colon) was 1.86 µM. It also gave a TGI (HT29 colon) of 3.67 µM, a GI50 (NCI-H226 lung) of 2.55 µM and a TGI (NCI-H226 lung) of 7.16 µM. For the same molecule, the GI50 (SF-268 CNS) was 1.86 µM, the TGI (SF-268 CNS) was 3.93 µM and the GI50 (BT-549 breast) was 2.29 µM. The TGI (BT-549 breast) was 9.55 µM, the GI50 (KM12 colon) was 1.86 µM and the TGI (KM12 colon) was 3.49 µM. It also gave a GI50 (EKVX NSCLC) of 2.07 µM, a TGI (EKVX NSCLC) of 5.29 µM and a GI50 (SF-539 CNS) of 1.67 µM. The TGI (SF-539 CNS) was 3.09 µM, the GI50 (NCI-H23 lung) was 2.46 µM and the TGI (NCI-H23 lung) was 6.52 µM. The GI50 (SN12C renal) was 2.74 µM, the TGI (SN12C renal) was 8.65 µM and the GI50 (A498 renal) was 3.36 µM. For the same molecule, the TGI (A498 renal) was 11.9 µM, the GI50 (SR leukemia) was 1.96 µM and the TGI (SR leukemia) was 4.79 µM. It also gave a GI50 (PC-3 prostate) of 2.2 µM, a TGI (PC-3 prostate) of 6.42 µM and a GI50 (SK-MEL-28 melanoma) of 1.84 µM. It also gave a TGI (SK-MEL-28 melanoma) of 3.37 µM, a GI50 (T-47D breast) of 1.96 µM and a TGI (T-47D breast) of 4.93 µM. The GI50 (RPMI-8226 leukemia) was 1.83 µM, the TGI (RPMI-8226 leukemia) was 4.38 µM and the GI50 (SF-295 CNS) was 1.93 µM. For the same molecule, the TGI (SF-295 CNS) was 3.95 µM, the GI50 (SK-MEL-2 melanoma) was 1.76 µM and the TGI (SK-MEL-2 melanoma) was 3.47 µM. For the same molecule, the GI50 (RXF 393 renal) was 1.64 µM, the TGI (RXF 393 renal) was 3.35 µM and the GI50 (OVCAR-5 ovarian) was 2.16 µM. The TGI (OVCAR-5 ovarian) was 5.13 µM, the GI50 (DU-145 prostate) was 2.11 µM and the TGI (DU-145 prostate) was 4.32 µM. For the same molecule, the GI50 (A549 NSCLC) was 1.94 µM, the TGI (A549 NSCLC) was 4.38 µM and the GI50 (UACC-257 melanoma) was 1.64 µM. For the same molecule, the TGI (UACC-257 melanoma) was 3.23 µM, the GI50 (786-0 renal) was 1.86 µM and the TGI (786-0 renal) was 3.38 µM. For the same molecule, the GI50 (MOLT-4 leukemia) was 2.98 µM, the TGI (MOLT-4 leukemia) was 9.5 µM and the GI50 (HOP-92 NSCLC) was 1.44 µM. It also gave a TGI (HOP-92 NSCLC) of 3.3 µM, a GI50 (TK-10 renal) of 2.03 µM and a TGI (TK-10 renal) of 4.51 µM. For the same molecule, the GI50 (CCRF-CEM leukemia) was 2.76 µM, the TGI (CCRF-CEM leukemia) was 13.7 µM and the GI50 (OVCAR-4 ovarian) was 2.74 µM. The TGI (OVCAR-4 ovarian) was 8.69 µM, the GI50 (SNB-19 CNS) was 2.9 µM and the TGI (SNB-19 CNS) was 9.8 µM. It also gave a GI50 (UO-31 renal) of 1.62 µM, a TGI (UO-31 renal) of 3.23 µM and a GI50 (MDA-MB-231 breast) of 1.85 µM. It also gave a TGI (MDA-MB-231 breast) of 3.89 µM, a GI50 (IGROV1 ovarian) of 2.27 µM and a TGI (IGROV1 ovarian) of 5.29 µM. The GI50 (HS 578T breast) was 1.92 µM, the TGI (HS 578T breast) was 4.7 µM and the GI50 (K-562 leukemia) was 2.42 µM. The TGI (K-562 leukemia) was 17.5 µM, the GI50 (SW-620 colon) was 1.73 µM and the TGI (SW-620 colon) was 3.23 µM. For the same molecule, the GI50 (SNB-75 CNS) was 1.6 µM, the TGI (SNB-75 CNS) was 3.88 µM and the GI50 (NCI/ADR-RES ovarian) was 8.99 µM. The TGI (NCI/ADR-RES ovarian) was 39.4 µM.
In the case of `COc1cc(/C=N/n2cnc3oc(-c4ccccc4)cc3c2=N)cc(CN2CCCC2)c1O`, the GI50 (ACHN renal) is reported as 1.61 µM, the TGI (ACHN renal) is reported as 3.18 µM and the GI50 (MALME-3M melanoma) is reported as 1.9 µM. For the same molecule, the TGI (MALME-3M melanoma) was 3.96 µM, the GI50 (MDA-MB-435) was 1.69 µM and the TGI (MDA-MB-435) was 3.19 µM. For the same molecule, the GI50 (NCI-H226 lung) was 5.84 µM, the TGI (NCI-H226 lung) was 34.1 µM and the GI50 (BT-549 breast) was 23.6 µM. For the same molecule, the TGI (BT-549 breast) was 58.4 µM, the GI50 (UACC-62 melanoma) was 19.6 µM and the TGI (UACC-62 melanoma) was 40.8 µM. It also gave a GI50 (EKVX NSCLC) of 1.83 µM, a TGI (EKVX NSCLC) of 3.77 µM and a GI50 (SF-539 CNS) of 1.75 µM. It also gave a TGI (SF-539 CNS) of 3.46 µM, a GI50 (SK-OV-3 ovarian) of 18 µM and a TGI (SK-OV-3 ovarian) of 38.5 µM. It also gave a GI50 (SN12C renal) of 1.58 µM, a TGI (SN12C renal) of 3.25 µM and a GI50 (A498 renal) of 12.9 µM. For the same molecule, the TGI (A498 renal) was 40.2 µM, the GI50 (PC-3 prostate) was 1.5 µM and the TGI (PC-3 prostate) was 3.13 µM. For the same molecule, the GI50 (SK-MEL-28 melanoma) was 1.82 µM, the TGI (SK-MEL-28 melanoma) was 3.56 µM and the GI50 (SK-MEL-5 melanoma) was 3.49 µM. For the same molecule, the TGI (SK-MEL-5 melanoma) was 15.9 µM, the GI50 (T-47D breast) was 1.96 µM and the TGI (T-47D breast) was 4.69 µM. For the same molecule, the GI50 (HL-60(TB) leukemia) was 3.51 µM, the TGI (HL-60(TB) leukemia) was 14.2 µM and the GI50 (RPMI-8226 leukemia) was 2.08 µM. The TGI (RPMI-8226 leukemia) was 4.82 µM, the GI50 (SF-295 CNS) was 1.89 µM and the TGI (SF-295 CNS) was 3.9 µM. It also gave a GI50 (SK-MEL-2 melanoma) of 21.2 µM, a TGI (SK-MEL-2 melanoma) of 47.3 µM and a GI50 (RXF 393 renal) of 1.35 µM. For the same molecule, the TGI (RXF 393 renal) was 3.43 µM, the GI50 (OVCAR-5 ovarian) was 1.67 µM and the TGI (OVCAR-5 ovarian) was 3.21 µM. For the same molecule, the GI50 (DU-145 prostate) was 1.83 µM, the TGI (DU-145 prostate) was 3.35 µM and the GI50 (UACC-257 melanoma) was 20.5 µM. For the same molecule, the TGI (UACC-257 melanoma) was 43.8 µM, the GI50 (MOLT-4 leukemia) was 2.18 µM and the TGI (MOLT-4 leukemia) was 6.49 µM. For the same molecule, the GI50 (HOP-92 NSCLC) was 1.92 µM, the TGI (HOP-92 NSCLC) was 13 µM and the GI50 (TK-10 renal) was 26.4 µM. It also gave a TGI (TK-10 renal) of 49.2 µM, a GI50 (CCRF-CEM leukemia) of 1.96 µM and a TGI (CCRF-CEM leukemia) of 5.75 µM. For the same molecule, the GI50 (UO-31 renal) was 1.42 µM, the TGI (UO-31 renal) was 3.08 µM and the GI50 (HOP-62 NSCLC) was 2.02 µM. For the same molecule, the TGI (HOP-62 NSCLC) was 5.04 µM, the GI50 (MDA-MB-231 breast) was 1.49 µM and the TGI (MDA-MB-231 breast) was 2.9 µM. It also gave a GI50 (HS 578T breast) of 13.5 µM, a TGI (HS 578T breast) of 34 µM and a GI50 (NCI-H522 lung) of 2.22 µM. It also gave a TGI (NCI-H522 lung) of 5.79 µM, a GI50 (CAKI-1 renal) of 1.4 µM and a TGI (CAKI-1 renal) of 2.88 µM. It also gave a GI50 (SNB-75 CNS) of 0.856 µM, a TGI (SNB-75 CNS) of 2.26 µM and a GI50 (NCI/ADR-RES ovarian) of 1.96 µM. The TGI (NCI/ADR-RES ovarian) was 4.04 µM.
